Among the data in US12215100B2, “Anticancer compounds” (Pharma Mar, S.A., priority 2018, dated 2025) are GI50 values, retold here.

What all share (format): cell-based, human
One assay concerns A549. Put plainly: SRB colorimetric cytotoxicity assay, A549. Particulars: Homo sapiens, lung carcinoma (NSCLC). The source says: (§1) The aim of this assay is to evaluate the in vitro cytostatic (ability to delay or arrest tumor cell growth) or cytotoxic (ability to kill tumor cells) activity of the samples being tested.
(§2) A colorimetric assay, using sulforhodamine B (SRB) reaction has been adapted to provide a quantitative measurement of cell growth and viability (following the technique described by V. Vichai and K. Kirtikara (2006) Nature Protoc. 1, 1112-1116.)
(§3) This form of assay employs 96-well cell culture microplates. All the cell lines used in this study were obtained from the American Type Culture Collection (ATCC), unless otherwise indicated, and derive from different types of human cancer.
(§4) Cells were maintained in Dulbecco's Modified Eagle Medium (DMEM) (for A549, HT-29 and MDA-MB-231) or RPMI (for PSN-1) supplemented with 10% Fetal Bovine Serum (FBS), 2 mM L-glutamine, 100 U/mL penicillin and 100 U/mL streptomycin at 37° C., 5% CO2 and 98% humidity. For the experiments, cells were harvested from subconfluent cultures using trypsinization and resuspended in fresh medium before counting and plating.
(§5) Cells were seeded in 96 well microtiter plates, at 5×10^3 cells per well in aliquots of 150 μL, and allowed to attach to the plate surface for 18 hours (overnight) in drug free medium. After that, one control (untreated) plate of each cell line was fixed (as described below) and used for time zero reference value. […] After 72 hours treatment, the antitumor effect was measured by using the SRB methodology: Briefly, cells were washed twice with PBS, fixed for 15 min in 1% glutaraldehyde solution at room temperature, rinsed twice in PBS, and stained in 0.4% SRB solution for 30 min at room temperature. Cells were then rinsed several times with 1% acetic acid solution and air-dried at room temperature. SRB was then extracted in 10 mM trizma base solution and the absorbance measured in an automated spectrophotometric plate reader at 490 nm. Effects on cell growth and survival were estimated by applying the NCI algorithm (Boyd M R and Pauli K D. Drug Dev Res. 1995, 34, 91-104).
(§6) Using the mean±SD of triplicates, a dose-response curve was automatically generated using nonlinear regression analysis to a 4-parameter logistic curve. Three reference parameters were calculated (NCI algorithm) by automatic interpolation: GI50=compound concentration that produces 50% cell growth inhibition, as compared to control cultures; TGI=total cell growth inhibition (cytostatic effect), as compared to control cultures, and LC50=compound concentration that produces 50% net cell killing (cytotoxic effect).

The next assay deals with HT29. Briefly: SRB colorimetric cytotoxicity assay, HT29. To be noted: Homo sapiens, colorectal adenocarcinoma.
From the text: as §1, §2, §3, §4, §5, §6

In the next assay the test system is MDA-MB-231. Briefly: SRB colorimetric cytotoxicity assay, MDA-MB-231. Particulars: Homo sapiens, breast adenocarcinoma.
From the text: as §1, §2, §3, §4, §5, §6

The test system of another assay is PSN-1. Briefly: SRB colorimetric cytotoxicity assay, PSN-1. Particulars: Homo sapiens, pancreatic adenocarcinoma.
From the text: as §1, §2, §3, §4, §5, §6

Setting [1] is: HT-29, 72 h, 72 hours treatment.
[2] abbreviates: MDA-MB-231, 72 h, 72 hours treatment.

What is called GI50 is the concentration giving 50% growth inhibition. Lower therefore signals more potent growth inhibition. For `C=Cc1cc([C@@H](CCC)NC(=O)[C@]2(C)CSC(/C(C)=N/O)=N2)oc(=O)c1` [Compound 79], the GI50 in the assay on A549 (A549, 72 h, 72 hours treatment) was determined as 424 nM; in the assay on HT29 (setting [1]) it was 397 nM; in the assay on MDA-MB-231 (setting [2]), 344 nM; with PSN-1 (PSN1, 72 h, 72 hours treatment), 477 nM.
In the same order, the values of `CCC[C@@H](NC(=O)[C@]1(C)CSC(/C(C)=N/O)=N1)c1cc(O)cc(=O)o1` [Compound 88] are 20400 nM, 11400 nM, 21800 nM and 18800 nM.
Take `C=C(C)C1=N[C@](C)(C(=O)N[C@H](CCC)c2cc(OCC3CC3)cc(=O)o2)CS1` [Compound 182]: the GI50 with A549 (A549, 72 h, 72 hours treatment) was 61.8 nM; in the assay on HT29 (setting [1]) it was 74.2 nM; in the assay with MDA-MB-231 (setting [2]), 91.5 nM; in the assay with PSN-1 (PSN1, 72 h, 72 hours treatment), 81.6 nM.
On to `CCC[C@@H](NC(=O)[C@]1(C)CSC(/C(C)=N/O[C@H]2O[C@@H]3COC(C)(C)O[C@H]3[C@@H]3OC(C)(C)O[C@H]23)=N1)c1cc(OCC2CC2)cc(=O)o1` [Compound 179], for which the GI50 in the assay on A549 (A549, 72 h, 72 hours treatment) is 9.04 nM; in the assay on HT29 (setting [1]) it was 6.48 nM; in the assay with MDA-MB-231 (setting [2]), 13.7 nM; in the assay on PSN-1 (PSN1, 72 h, 72 hours treatment), 14.3 nM.
With `C=CCOc1cc([C@@H](CCC)NC(=O)[C@]2(C)CSC(/C(C)=N/OC(=O)COCCOCCOC)=N2)oc(=O)c1` [Compound 164], the GI50 with A549 (A549, 72 h, 72 hours treatment) was found to be 6.52 nM; in the assay with HT29 (setting [1]) it was 4.58 nM; in the assay with MDA-MB-231 (setting [2]), 7.22 nM; in the assay on PSN-1 (PSN1, 72 h, 72 hours treatment) it was 6.52 nM.
For the compound `CCC[C@@H](NC(=O)[C@]1(C)CSC(/C(C)=N/O)=N1)c1cc(OC)cc(=O)o1` [Compound 1], the GI50 with A549 (A549, 72 h, 72 hours treatment) turned out to be 11.5 nM; in the assay on HT29 (setting [1]), 14.4 nM; with MDA-MB-231 (setting [2]), 34.1 nM; with PSN-1 (PSN1, 72 h, 72 hours treatment), 28.8 nM.
For `CCC[C@@H](NC(=O)[C@]1(C)CSC(/C(C)=N/OCCCN)=N1)c1cc(OCC2CC2)cc(=O)o1` (stereo in doubt) [Compound 158], the GI50 in the assay on A549 (A549, 72 h, 72 hours treatment) turned out to be 5.43 nM; in the assay on HT29 (setting [1]), 6.06 nM; with MDA-MB-231 (setting [2]), 12.1 nM; in the assay on PSN-1 (PSN1, 72 h, 72 hours treatment), 6.27 nM.
In the same order, the values of `CCC[C@@H](NC(=O)[C@@H]1CSC(/C(C)=N/O)=N1)c1cc(OC)cc(=O)o1` [Compound 92] are 1550 nM, 1280 nM, 953 nM and 953 nM.
Take `CCCCCCCOc1cc([C@@H](CCC)NC(=O)[C@]2(C)CSC(/C(C)=N\O)=N2)oc(=O)c1` [Compound 72a]: the GI50 stood at 110 nM in the assay with A549 (A549, 72 h, 72 hours treatment); 183 nM with HT29 (setting [1]); 103 nM with MDA-MB-231 (setting [2]); 125 nM in the assay on PSN-1 (PSN1, 72 h, 72 hours treatment).
With `CCC[C@@H](NC(=O)[C@]1(C)CSC(/C(C)=N/O[Si](c2ccccc2)(c2ccccc2)C(C)(C)C)=N1)c1cc(O)cc(=O)o1` [Compound 184], the concentration for 50% growth inhibition (GI50) with A549 (A549, 72 hours treatment) was found to be 4790 nM; in the assay with HT29 (HT-29, 72 hours treatment), 2970 nM; with MDA-MB-231 (MDA-MB-231, 72 hours treatment), 4460 nM; with PSN-1 (PSN1, 72 hours treatment), 4130 nM.
Turning to `C#CCOc1cc([C@@H](CCC)NC(=O)[C@]2(C)CSC(/C(C)=N/OCCCNC(=O)OC(C)(C)C)=N2)oc(=O)c1` [Compound 155], the GI50 with A549 (A549, 72 h, 72 hours treatment) came to 37.4 nM; with HT29 (setting [1]), 40.9 nM; in the assay with MDA-MB-231 (setting [2]), 74.8 nM; in the assay on PSN-1 (PSN1, 72 h, 72 hours treatment), 73 nM.
Take `CCC[C@@H](NC(=O)[C@@]1(C)CSC(C(C)(OCC)OCC)=N1)c1cc(OC)cc(=O)o1` [Compound 129]: the GI50 in the assay on A549 (A549, 72 h, 72 hours treatment) is 6130 nM; in the assay on HT29 (setting [1]), 3630 nM; in the assay on MDA-MB-231 (setting [2]), 3860 nM; with PSN-1 (PSN1, 72 h, 72 hours treatment), 5450 nM.
For the compound `CCC[C@@H](NC(=O)[C@]1(C)CSC(/C(C)=N/OCCOCCOCCOCC)=N1)c1cc(OCC2CC2)cc(=O)o1` [Compound 145], the GI50 in the assay on A549 (A549, 72 h, 72 hours treatment) was determined as 48.1 nM; in the assay on HT29 (setting [1]), 61.9 nM; in the assay on MDA-MB-231 (setting [2]) it was 122 nM; with PSN-1 (PSN1, 72 h, 72 hours treatment) it was 112 nM.
Turning to `C=CCOc1cc([C@@H](CCC)NC(=O)[C@]2(C)CSC(/C(C)=N/OC(=O)[C@H]3O[C@@H]4OC(C)(C)O[C@@H]4[C@H]4OC(C)(C)O[C@H]43)=N2)oc(=O)c1` [Compound 170], the GI50 is 3.01 nM with A549 (A549, 72 h, 72 hours treatment); 2.41 nM with HT29 (setting [1]); 5.57 nM with MDA-MB-231 (setting [2]); 2.71 nM with PSN-1 (PSN1, 72 h, 72 hours treatment).
